Results published in patent EP4810040A2, “INHIBITORS OF APOL1 AND METHODS OF USING SAME” (priority 2020, dated 2022).
Read-outs that look alike come from different tables or passages of the source.

Biological target: T1, APOL1 G1 (Homo sapiens, UniProt O14791, I384M/S342G)
T1 sequence (O14791 28-398 S342G/I384M): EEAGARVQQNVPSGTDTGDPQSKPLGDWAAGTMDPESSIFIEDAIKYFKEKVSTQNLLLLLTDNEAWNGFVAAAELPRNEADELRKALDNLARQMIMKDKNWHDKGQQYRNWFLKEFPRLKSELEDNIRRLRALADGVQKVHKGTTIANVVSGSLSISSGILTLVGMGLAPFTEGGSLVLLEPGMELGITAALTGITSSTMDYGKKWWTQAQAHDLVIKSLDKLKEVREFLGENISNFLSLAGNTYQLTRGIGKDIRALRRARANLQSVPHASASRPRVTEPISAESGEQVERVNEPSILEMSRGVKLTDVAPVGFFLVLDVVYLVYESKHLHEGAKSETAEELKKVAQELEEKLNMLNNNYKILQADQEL
Assay: MultiTox-Fluor Multiplex Cytotoxicity Assay, tet-inducible APOL1 G1 T-REx-HEK293 cells
Format: cell-based
Parameters: expressed in transfected cells; host or cells: T-REx HEK293, clone G1 DC3.25 (pAAVS1-Puro-APOL1 G1)
Conditions: for IC90: read-out: Multi-Tox Assay IC90; for Emax: read-out: Multi-Tox Assay Max Activity (%)
Procedure: The MultiTox-Fluor Multiplex Cytotoxicity Assay is a single-reagent-addition, homogeneous, fluorescence assay that measures the number of live and dead cells simultaneously in culture wells. The assay measures cell viability and cytotoxicity by detecting two distinct protease activities. The live-cell protease activity is restricted to intact viable cells and is measured using a fluorogenic, cell-permeant peptide glycyl-phenylalanylamino fluorocoumarin (GF-AFC) substrate. The substrate enters intact cells, where it is cleaved to generate a fluorescent signal proportional to the number of living cells. […] A second, cell-impermeant, fluorogenic peptide substrate (bis-AAF-R110 Substrate) is used to measure dead-cell protease that has been released from cells that have lost membrane integrity. A ratio of dead to live cells is used to normalize data.
Briefly, the tet-inducible transgenic APOL1 T-REx-HEK293 cell lines were incubated with 50 ng/mL tet to induce APOL1 in the presence of 3-(2-(4-fluorophenyl)-1H-indol-3-yl)-N-((3S,4R)-4-hydroxy-2-oxopyrrolidin-3-yl)propenamide at […], 0.0045, 0.0015, 0.0005 µM in duplicate for 24 hours in a humidified 37°C incubator. The MultiTox reagent was added to each well and placed back in the incubator for an additional 30 minutes. The plate was read on the EnVision plate reader. A ratio of dead to live cells was used to normalize, and data was imported, analyzed and fit using Genedata Screener (Basel, Switzerland) software. Data was normalized using percent of control, no tet (100% viability), and 50 ng/mL tet treated (0% viability),and fit using Smart Fit. The reagents, methods, and complete protocol for the MultiTox assay are described below. Table 42. Reagents Used in the Multi-Tox Assay
Human embryonic kidney (HEK293) cell lines containing a tet-inducible expression system (T-REx™; Invitrogen, Carlsbad, CA) and Adeno-associated virus site 1 pAA VS1-Puro-APOL1 G0 or pAAVS1-Puro-APOL1 G1 or pAAVS1-Puro-APOL1 G2 Clones G0 DC2.13, G1 DC3.25, and G2 DC4.44 were grown in a T-225 flask at ~90% confluency in cell growth media (DMEM, 10% Tet-free FBS, 2 mM L-glutamine, 100 Units/mL penicillin-streptomycin, 5 µg/mL blasticidin S HCl, 1 µg/mL puromycin dihydrochloride). Cells were washed with DPBS and then trypsinized to dissociate from the flask. Media was used to quench the trypsin, cells were then pelleted at 200g and resuspended in fresh cell assay media (DMEM, 2% Tet-free FBS, 2 mM L-glutamine, 100 Units/mL penicillin-streptomycin). Cells were counted and diluted to 1.17 x 10^6 cells/mL. 20 µL of cells (23,400/well) were dispensed to every well of a 384-well Poly-D-Lysine coated plate using the Multidrop dispenser. The plates were then incubated at room temperature for one hour.
Tetracycline is needed to induce APOL1 expression. 1 mg/mL tet stock in water was diluted to 250 ng/mL (5X) in cell assay media. 60 µL of cell assay media (no tet control) was dispensed in columns 1 and 24, and 60 µL of 5X tet was dispensed in 384-PP-round bottom plate in columns 2 to 23 with the Multidrop dispenser.
Assay ready plates from the Global Compound Archive were ordered using template 384_APOL1Cell_DR10n2_50uM_v3. Compounds were dispensed at 200 nL in DMSO. The final top concentration was 10 µM with a 10 point 3-fold dilution in duplicate in the MultiTox assay.
20 µL were transferred from the 5X tet plate to the ARP and mixed, then 5 µL of 5X tet and the compounds were transferred to the cell plate and mixed using the Bravo. The cell plate was placed in the humidified 37°C 5% CO2 incubator for 24 hours.
The MultiTox-Fluor Multiplex Cytotoxicity Assay was performed in accordance with the manufacturer's protocol. […]

[1] = HEK293, Multi-Tox Assay, APOL1 variant (G0/G1/G2) of the HEK293 cells not given
[2] = Multi-Tox Assay, APOL1 variant not given
[3] = Multi-Tox Assay, APOL1 variant (G0/G1/G2) not stated in Table 46
[4] = Multi-Tox Assay, APOL1 variant not stated in Table 46

| SMILES | IC90 [1] [nM] | Emax [2] [%] | Multi-Tox Assay Max Activity (%) [2] [%] | other results |
| --- | --- | --- | --- | --- |
| CC(CO)CCn1cc([C@@H]2C[C@]3(C[C@H](C)N2)OCC(F)(F)c2cc(Cl)sc23)nn1 (stereo partly drawn) [Compound 306] | > 500 | – | – | – |
| C[C@H]1C[C@@]2(C[C@@H](c3cn(Cc4ccc(CO)cc4)nn3)N1)OC[C@@H](O)c1cc(Cl)sc12 [Compound 224, (2'S,4S,6'S,7S)-2-chloro-2'-[1-[[4-(hydroxymethyl)phenyl]methyl]triazol-4-yl]-6'-methyl-spiro[4,5-dihydrothieno[2,3-c]pyran-7,4'-piperidine]-4-ol] | 50 to 500 | 99 | – | – |
| C[C@H]1C[C@@]2(C[C@@H](c3cn(CC4CCOCC4)nn3)N1)OC[C@@H](O)c1cc(Cl)sc12 [Compound 267] | 50 to 500 | – | – | – |
| C[C@H]1C[C@@]2(C[C@@H](c3c[nH]cn3)N1)OCCc1cc(Cl)sc12 (racemic) [Compound 85] | < 50 | 99.3 | – | – |
| C[C@H]1C[C@@]2(C[C@@H](c3cn(CC4CCC(=O)NC4)nn3)N1)OC[C@@H](O)c1cc(Cl)sc12 (stereo partly drawn) [Compound 254] | > 500 | – | 92.0 | – |
| CC1CC2(CC(C(C)C)N1)OCCc1cc(Cl)sc12 (mixture of isomers) [Compound 214] | 50 to 500 | 99.3 | – | – |
| CC1COC2(C[C@@H](c3cn(C)nn3)N[C@@H](C)C2)c2cc(C(F)(F)F)sc21 (stereo partly drawn) [Compound 14] | 50 to 500 | – | 99.3 | – |
| C[C@H]1C[C@@]2(C[C@@H](c3cnn(-c4ccccc4)c3)N1)OCCc1cc(Cl)sc12 (racemic) [Compound 65] | < 50 | 99.5 | – | – |
| C[C@H]1C[C@@]2(C[C@@H](c3cccn4ccnc34)N1)OCCc1cc(Cl)sc12 [Compound 143] | 50 to 500 | – | 98.0 | – |
| Cn1cc(C2CC3(CC(C4CCC4)N2)OCCc2cc(Cl)sc23)nn1 (stereo not drawn) [Compound 189] | > 500 | 97 | – | – |
| C[C@H]1C[C@@]2(C[C@@H](c3cn(Cc4ccc(O)cc4)nn3)N1)OCC(F)(F)c1cc(Cl)sc12 [Compound 302] | 50 to 500 | – | 94.0 | – |
| C[C@H]1C[C@@]2(C[C@@H](c3cc(C4CCOCC4)[nH]n3)N1)OCCc1cc(Cl)sc12 [Compound 114] | 50 to 500 | – | 99.7 | – |
| CC1COC2(C[C@@H](c3cn(C)nn3)N[C@@H](C)C2)c2cc(Cl)sc21 (single isomer, unassigned) [Compound 12] | < 50 | – | 99.3 | – |
| CCc1nc([C@@H]2C[C@]3(C[C@H](C)N2)OCCc2cc(Cl)sc23)c[nH]1 (racemic) [Compound 128] | 50 to 500 | – | 99.3 | – |
| C[C@H]1C[C@@]2(C[C@@H](c3cn(C)nn3)N1)OC[C@@H](O)c1cc(Cl)sc12 [Compound 174, (2'S, 4S, 6'S, 7S)-2-chloro-2'-methyl-6'-(1-methyltriazol-4-yl)spiro[4,5-dihydrothieno[2,3-c]pyran-7,4'-piperidine]-4-ol] | < 50 | 99.8 | – | – |
| Cc1cncc([C@@H]2C[C@]3(C[C@H](C)N2)OCCc2cc(Cl)sc23)c1 (racemic) [Compound 64] | < 50 | 100 | – | – |

| SMILES | IC90 [1] [nM] | Emax [2] [%] | Multi-Tox Assay Max Activity (%) [2] [%] | other results |
| --- | --- | --- | --- | --- |
| C[C@H]1C[C@@]2(C[C@@H](c3cnc(NC(C)(C)CO)nc3)N1)OCCc1cc(Cl)sc12 (racemic) [Compound 95] | < 50 | 99.8 | – | – |
| COC(=O)Cn1cc([C@@H]2C[C@]3(C[C@H](C)N2)OC[C@@H](O)c2cc(Cl)sc23)nn1 [Compound 263] | > 500 | – | 86.0 | – |
| C[C@H]1C[C@@]2(C[C@@H](c3cccnn3)N1)OCCc1cc(Cl)sc12 (racemic) [Compound 92] | < 50 | 100 | – | – |
| Cc1cccc(OCC(O)Cn2cc([C@@H]3C[C@]4(C[C@H](C)N3)OC[C@@H](O)c3cc(Cl)sc34)nn2)c1 (stereo partly drawn) [Compound 260] | 50 to 500 | – | – | – |
| C[C@H]1C[C@@]2(C[C@@H](c3cn(C)nn3)N1)OCC(C)(O)c1cc(C(F)(F)F)sc12 (stereo partly drawn) [Compound 384, (2'S,6'S,7S)-2',4-dimethyl-6'-(1-methyltriazol-4-yl)-2-(trifluoromethyl)spiro[5H-thieno[2,3-c]pyran-7,4'-piperidine]-4-ol] | – | – | – | IC90 [3]: < 50 nM; Emax [4]: 100% |
| C[C@H]1C[C@@]2(C[C@@H](c3cn(Cc4cccc(CO)c4)nn3)N1)OCC(F)(F)c1cc(Cl)sc12 [Compound 313] | 50 to 500 | – | 98.0 | – |
| CC1CC2(CC(c3cnn(CCS(C)(=O)=O)c3)N1)OCCc1sc(C(F)(F)F)cc12 (stereo not drawn) [Compound 9] | 50 to 500 | – | 100.0 | – |
| C[C@@H]1CC2(C[C@H](C)N1)OCCc1c2sc(C(F)(F)F)c1CO (single isomer, unassigned) [Compound 208] | 50 to 500 | 99.5 | – | – |
| C[C@H]1C[C@@]2(C[C@@H](c3cccc(S(C)(=O)=O)c3)N1)OCCc1cc(Cl)sc12 (racemic) [Compound 146] | 50 to 500 | – | 97.0 | – |
| COc1ccc(Cn2cc([C@@H]3C[C@]4(C[C@H](C)N3)OCC(F)(F)c3cc(Cl)sc34)nn2)cc1F [Compound 362] | – | – | – | IC90 [3]: 50 to 500 nM; Multi-Tox Assay Max Activity (%) [4]: 98.0%; IC50 (Multi-Tox Assay, IP50 = IC50 for cell proliferation, APOL1 variant not stated in Table 46): 50 to 500 nM |
| C[C@H]1C[C@@]2(C[C@@H](c3cn(Cc4cocn4)nn3)N1)OC[C@@H](O)c1cc(Cl)sc12 [Compound 291] | 50 to 500 | – | 100.0 | – |
| C[C@H]1C[C@@]2(C[C@@H](c3cn4c(n3)COCC4)N1)OCCc1cc(Cl)sc12 (racemic) [Compound 74] | < 50 | 99.2 | – | – |
| C[C@H]1C[C@@]2(C[C@@H](c3cn(Cc4ccccc4S(C)(=O)=O)nn3)N1)OC[C@@H](O)c1cc(Cl)sc12 [Compound 231] | 50 to 500 | – | 95.0 | – |
| [2H]C1([2H])O[C@@]2(C[C@@H](c3cn(C)nn3)N[C@@H](C)C2)c2sc(Cl)cc2[C@]1([2H])O [Compound 385, (2S,4S,4'S,6S)-2'-chloro-4',5',5'-trideuterio-2-methyl-6-(1-methyltriazol-4-yl)spiro[piperidine-4,7'-thieno[2,3-c]pyran]-4'-ol] | – | – | – | IC90 [3]: < 50 nM; Emax [4]: 100% |
| C[C@H]1C[C@@]2(C[C@@H](c3cn(CC4(F)CCOCC4)nn3)N1)OC[C@@H](O)c1cc(Cl)sc12 [Compound 289] | > 500 | – | 83.0 | – |
